Laboratory results reported in paper PMC9090415, “Discovery of small molecule inhibitors of Plasmodium falciparum apicoplast DNA polymerase” (Journal of Enzyme Inhibition and Medicinal Chemistry, 2022).

Target: P. falciparum apicoplast DNA polymerase (Pf-apPOL) (Plasmodium falciparum, UniProt Q8ILY1)
Experiment: Fluorescence-based high-throughput DNA polymerase assay (molecular beacon), primary screen and dose-response
Format: biochemical
Procedure: The HT assay employs a molecular beacon, a stem-loop DNA template with a Cy3 dye and the Black Hole Quencher on the 3′ and 5′ ends of the DNA, respectively. Pf-apPOL concentration is based on a calculated absorptivity of ε280 = 56750 M^−1 cm^−1. Reactions were carried out at 25 °C, using Corning 3575 […] (well-volume, 20 µL). Assays testing for compound inhibition composed of reaction buffer (pH 7.9 in 50 mM potassium acetate, 20 mM Tris-acetate and 10 mM magnesium acetate), Pf-apPOL (20 nM), DNA substrate (20 nM), dNTPs (6 µM), and compound (10 µM in DMSO). The DNA and nucleotide substrates (dNTPs) were at concentrations of 20 nM and 6 µM, respectively, in the assay. Pf-apPOL was incubated in the reaction buffer with dNTPs and the compound of interest (10 µM, in the assay) at 25 °C for 10 min. The DNA substrate was then added and the reaction was allowed to proceed for 90 min at 25 °C.
Each assay plate contained 16 negative controls (no Pf-apPOL, DMSO present) and 16 positive controls (Pf-apPOL present, no DMSO). The fluorescence of each well was determined using a BioTek Synergy Neo fluorescence plate reader using excitation and emission wavelengths of 555 and 570 nm, respectively.
In the above, Min is the average of fluorescence emission of the negative controls (substrate only), Max the average fluorescence emission from the positive controls (enzyme + substrate), and Test the emission from the assays in the presence of compounds (enzyme + compound + substrates). […] […] The IC50 of each compound was determined using Equation (2): (2) IC50= Vmax/(1+ (I/IC50)^n)
In the above, n measures cooperativity, with n > 1 indicating synergistic binding of more than a single molecule of the compound.
To identify apPOL inhibitors we utilised our previously developed high-throughput DNA polymerase assay. The HT assay is based on a molecular beacon DNA template that forms a stem-loop with a Cy3 dye and the Black Hole Quencher on the 3′ and 5′ ends of the DNA, respectively. DNA polymerase activity extends an annealed primer through the stem region, displacing the fluorophore from the quencher, thereby increasing its fluorescence (Figure 1(A)). The assay accurately recapitulates the kinetic behaviour of apPOL, as measured through more conventional low-throughput gel-based assays. The Z′ factor for the assay described here was 0.9 across all plates (data not shown).
Figure 1. High-throughput screening. (A) The fluorescent-based DNA polymerase assay used to screen the compound libraries. The DNA template strand is a hairpin loop with a primer annealed to the loop. The 3’ end of the primer is 11 bases away from the 6 bp duplex. Strand displacement activity of the DNA polymerase separates the Cy3 dye from the Black hole quencher leading to an increase in fluorescent signal. (B) The high-throughput assay workflow. The DNA polymerase is incubated with […] compound for 10 min prior to addition of the hairpin substrate. The reaction is quenched at 3 different time points and the fluorescent signal is measured and % inhibition is determined using the provided equation.

[1] = supplemental file 2, sheet IC50 nontoxic compounds; Pf-apPOL

Chain of P. falciparum apicoplast DNA polymerase (Pf-apPOL) (Q8ILY1 entry or part of it): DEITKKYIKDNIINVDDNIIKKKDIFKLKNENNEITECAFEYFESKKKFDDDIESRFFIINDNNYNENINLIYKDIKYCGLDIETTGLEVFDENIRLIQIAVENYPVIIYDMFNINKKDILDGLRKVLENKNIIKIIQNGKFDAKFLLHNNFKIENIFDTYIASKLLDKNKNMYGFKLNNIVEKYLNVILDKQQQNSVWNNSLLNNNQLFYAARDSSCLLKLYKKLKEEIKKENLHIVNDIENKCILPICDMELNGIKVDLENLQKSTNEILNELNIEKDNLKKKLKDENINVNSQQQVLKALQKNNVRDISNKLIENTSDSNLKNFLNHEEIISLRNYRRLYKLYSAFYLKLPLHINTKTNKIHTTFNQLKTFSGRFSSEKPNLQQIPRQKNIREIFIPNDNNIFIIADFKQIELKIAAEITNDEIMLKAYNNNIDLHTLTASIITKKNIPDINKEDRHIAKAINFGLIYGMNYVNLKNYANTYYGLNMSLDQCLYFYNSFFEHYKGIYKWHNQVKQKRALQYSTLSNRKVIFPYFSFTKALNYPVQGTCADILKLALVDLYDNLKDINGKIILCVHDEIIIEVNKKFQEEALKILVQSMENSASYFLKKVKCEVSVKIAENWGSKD

Cc1nn(CC(=O)NCCSCc2ccco2)c(C)c1Br [KU0267182]
DNA Pol (186 hits, value of the hit list (primary screen); unit not given; 90 min, 10 µM): 72 | % inhibition Apo pol 10' (DRC-1; 10'; concentration 2.5): 1.812% | % inhibition Apo pol 10' (DRC-1; 10'; concentration 5): 6.711% | % inhibition Apo pol 10' (DRC-1; 10'; concentration 10): 15.4752% | % inhibition Apo pol 10' (DRC-1; 10'; concentration 20): 17.8463% | % inhibition Apo pol 10' (DRC-1; 10'; concentration 40): 47.0773% | % inhibition Apo pol 10' (DRC-1; 10'; concentration 80): 72.2462% | % inhibition Apol 90' (DRC-1; 90'; concentration 2.5): -1.178% | % inhibition Apol 90' (DRC-1; 90'; concentration 5): 2.416% | % inhibition Apol 90' (DRC-1; 90'; concentration 10): 7.223% | % inhibition Apol 90' (DRC-1; 90'; concentration 20): 9.063% | % inhibition Apol 90' (DRC-1; 90'; concentration 40): 29.9709% | % inhibition Apol 90' (DRC-1; 90'; concentration 80): 56.479% | % inhibition apPOL 180' (DRC-1; 180'; concentration 2.5): -4.52% | % inhibition apPOL 180' (DRC-1; 180'; concentration 5): -1.314% | % inhibition apPOL 180' (DRC-1; 180'; concentration 10): 2.547% | % inhibition apPOL 180' (DRC-1; 180'; concentration 20): 1.732% | % inhibition apPOL 180' (DRC-1; 180'; concentration 40): 16.5888% | % inhibition apPOL 180' (DRC-1; 180'; concentration 80): 39.2205% | % inhibition Apo pol 5' (DRC-2, 5', concentration 2.5): 6% | % inhibition Apo pol 5' (DRC-2, 5', concentration 5): 7.46% | % inhibition Apo pol 5' (DRC-2, 5', concentration 10): 16% | % inhibition Apo pol 5' (DRC-2, 5', concentration 20): 23% | % inhibition Apo pol 5' (DRC-2, 5', concentration 40): 43% | % inhibition Apo pol 5' (DRC-2, 5', concentration 80): 55% | % inhibition Apol 40' (DRC-2, 40', concentration 2.5): 7.41% | % inhibition Apol 40' (DRC-2, 40', concentration 5): 7% | % inhibition Apol 40' (DRC-2, 40', concentration 10): 15% | % inhibition Apol 40' (DRC-2, 40', concentration 20): 21% | % inhibition Apol 40' (DRC-2, 40', concentration 40): 45% | % inhibition Apol 40' (DRC-2, 40', concentration 80): 64% | % inhibition ApPOL 90' (DRC-2, 90', concentration 2.5): 6% | % inhibition ApPOL 90' (DRC-2, 90', concentration 5): 4% | % inhibition ApPOL 90' (DRC-2, 90', concentration 10): 12% | % inhibition ApPOL 90' (DRC-2, 90', concentration 20): 16% | % inhibition ApPOL 90' (DRC-2, 90', concentration 40): 39% | % inhibition ApPOL 90' (DRC-2, 90', concentration 80): 63% | % inhibition apPOL 180' (DRC-2, 180', concentration 2.5): 0.763% | % inhibition apPOL 180' (DRC-2, 180', concentration 5): -0.774% | % inhibition apPOL 180' (DRC-2, 180', concentration 10): 3.79% | % inhibition apPOL 180' (DRC-2, 180', concentration 20): 7.41% | % inhibition apPOL 180' (DRC-2, 180', concentration 40): 27% | % inhibition apPOL 180' (DRC-2, 180', concentration 80): 55% | % inhibition Apo pol 5' (DRC-2; 5'; concentration 2.5): 6% | % inhibition Apo pol 5' (DRC-2; 5'; concentration 10): 16% | % inhibition Apo pol 5' (DRC-2; 5'; concentration 80): 55% | % inhibition Apol 40' (DRC-2; 40'; concentration 2.5): 7.41% | % inhibition ApPOL 90' (DRC-2; 90'; concentration 2.5): 6% | % inhibition ApPOL 90' (DRC-2; 90'; concentration 20): 16% | % inhibition apPOL 180' (DRC-2; 180'; concentration 20): 7.41% | % inhibition apPOL 180' (DRC-2; 180'; concentration 80): 55% | DNA Pol (primary screen value, 'DNA Pol' only; 90 min, 10 µM): 72

O=[N+]([O-])c1cc2c(cc1CN1CCN(c3cccc(Cl)c3)CC1)OCO2 [KU0005610]
DNA Pol ('DNA Pol'; screening value, unit not given; 90 min, 10 µM): 40 | % inhibition Apo pol 10' (DRC-1; 10'; concentration 2.5): 13.4536% | % inhibition Apo pol 10' (DRC-1; 10'; concentration 5): 19.449% | % inhibition Apo pol 10' (DRC-1; 10'; concentration 10): 35.0383% | % inhibition Apo pol 10' (DRC-1; 10'; concentration 20): 58.0522% | % inhibition Apo pol 10' (DRC-1; 10'; concentration 40): 81.6045% | % inhibition Apo pol 10' (DRC-1; 10'; concentration 80): 82.8557% | % inhibition Apol 90' (DRC-1; 90'; concentration 2.5): 0.2927% | % inhibition Apol 90' (DRC-1; 90'; concentration 5): 2.869% | % inhibition Apol 90' (DRC-1; 90'; concentration 10): 13.5382% | % inhibition Apol 90' (DRC-1; 90'; concentration 20): 40.3549% | % inhibition Apol 90' (DRC-1; 90'; concentration 40): 64.8091% | % inhibition Apol 90' (DRC-1; 90'; concentration 80): 60.8313% | % inhibition apPOL 180' (DRC-1; 180'; concentration 2.5): -5.629% | % inhibition apPOL 180' (DRC-1; 180'; concentration 5): -4.543% | % inhibition apPOL 180' (DRC-1; 180'; concentration 10): 2.609% | % inhibition apPOL 180' (DRC-1; 180'; concentration 20): 32.6998% | % inhibition apPOL 180' (DRC-1; 180'; concentration 40): 54.6533% | % inhibition apPOL 180' (DRC-1; 180'; concentration 80): 41.754% | % inhibition Apo pol 5' (DRC-2, 5', concentration 2.5): 6% | % inhibition Apo pol 5' (DRC-2, 5', concentration 5): 11% | % inhibition Apo pol 5' (DRC-2, 5', concentration 10): 25% | % inhibition Apo pol 5' (DRC-2, 5', concentration 20): 34% | % inhibition Apo pol 5' (DRC-2, 5', concentration 40): 45% | % inhibition Apo pol 5' (DRC-2, 5', concentration 80): 49% | % inhibition Apol 40' (DRC-2, 40', concentration 2.5): 2.55% | % inhibition Apol 40' (DRC-2, 40', concentration 5): 6.48% | % inhibition Apol 40' (DRC-2, 40', concentration 10): 18% | % inhibition Apol 40' (DRC-2, 40', concentration 20): 28% | % inhibition Apol 40' (DRC-2, 40', concentration 40): 49% | % inhibition Apol 40' (DRC-2, 40', concentration 80): 61% | % inhibition ApPOL 90' (DRC-2, 90', concentration 2.5): -0.242% | % inhibition ApPOL 90' (DRC-2, 90', concentration 5): 1.42% | % inhibition ApPOL 90' (DRC-2, 90', concentration 10): 11% | % inhibition ApPOL 90' (DRC-2, 90', concentration 20): 20% | % inhibition ApPOL 90' (DRC-2, 90', concentration 40): 45% | % inhibition ApPOL 90' (DRC-2, 90', concentration 80): 61% | % inhibition apPOL 180' (DRC-2, 180', concentration 2.5): -7.6% | % inhibition apPOL 180' (DRC-2, 180', concentration 5): -5.3% | % inhibition apPOL 180' (DRC-2, 180', concentration 10): 2.12% | % inhibition apPOL 180' (DRC-2, 180', concentration 20): 7% | % inhibition apPOL 180' (DRC-2, 180', concentration 40): 32% | % inhibition apPOL 180' (DRC-2, 180', concentration 80): 53% | % inhibition Apo pol 5' (conc 5 (unit not given); 5'; DRC-2): 11% | % inhibition ApPOL 90' (conc 10 (unit not given); 90'; DRC-2): 11% | % inhibition Apo pol 5' (conc 40 (unit not given); 5'; DRC-2): 45% | % inhibition Apol 40' (conc 40 (unit not given); 40'; DRC-2): 49% | % inhibition ApPOL 90' (conc 40 (unit not given); 90'; DRC-2): 45% | % inhibition Apo pol 5' (conc 80 (unit not given); 5'; DRC-2): 49% | % inhibition Apol 40' (conc 80 (unit not given); 40'; DRC-2): 61% | % inhibition ApPOL 90' (conc 80 (unit not given); 90'; DRC-2): 61% | DNA Pol (primary screen hit value, DNA Pol (186 hits); 90 min, 10 µM): 40

O=C(c1c[nH]c2ncccc12)N1CCCCCC1 [Molecule 51]
IC50 [1]: 21.5 µM

Cc1cc(C)c2c(c1)C1C=CCC1C(c1ccc(C(=O)O)cc1)N2 (stereo not shown) [Molecule 102]
IC50 [1]: 2.89 µM
